Measurements from US4431807A, “4-Methyl-5-(unsubstituted and substituted phenoxy)-6-methoxy-8-(aminoalkylamino)quinolines” (priority 1981, dated 1984).
Values joined by “and” are separate entries in the source; they are usually repeats but may differ in a detail not shown here. Equal entries are not always repeated.

Key:
Plasmodium berghei [1] = experiment: Blood schizonticidal (suppressive) test, Rane mouse test, P. berghei; format: in vivo, Plasmodium berghei KBG 173 in ICR/HA Swiss mice; conditions: for Extension of survival relative to controls / Suppressive activity (active/inactive) / Cures (60 days survival) / Toxic: Table III; for Suppressive activity (active/inactive) / Cures (60 days survival) / Toxic: five mice
Source text: Blood Schizonticidal Test (Mouse), University of Miami, Rane (Suppressive)
This system is based on comparisons of responses to test compounds by Plasmodium berghei KBG 173 malaria in mice as expressed in mean survival times and the mean survival times of untreated controls. Thus, compounds noted as active produce increases in the survival times of the treated animals that are significant when compared with the survival times of untreated controls. Since an established disease is less sensitive to treatment than a disease in the early stages of development, treatment is withheld until the parasitemia is relatively high in order to insure a more reliable assay of activity and the selection of appropriate compounds for intensive preclinical studies.
Utilizing young ICR/HA Swiss mice and a standard inoculum of Plasmodium berghei KBG 173, it is possible to produce a uniform disease fatal to 100% of untreated animals within 6 to 8 days with a mean survival time of 6.2 days. Test animals weigh from 18 to 22 grams but weight variations in any given experimental or control group are confined to 2-3 grams. All animals in any given test are approximately of the same age. Animals on test are housed in metal-topped plastic cages, given a standard laboratory diet and water ad libitum.
Test animals receive an intraperitoneal injection of 0.5 ml of 1:100 dilution of heparinized heart's blood with a minimum of 90% parasitized cells (4×10^7 cells), drawn from donor mice infected one week earlier with Plasmodium berghei. The donor stran is maintained by weekly passages in separate groups of mice inoculated with a 0.5 ml of 1:500 dilution of heparinized heart's blood.
Test compounds are administered after dissolution or suspension in peanut oil. A single dose is given subcutaneously 72 hours after the mice are infected with Plasmodium berghei. At this time a 10-15 percent parasitemia has developed; the disease is well established but has not produced sufficient debility to alter the response of the host to toxic effects of the drug on test. Since treatment is withheld for three days to permit the infection to become well established and death occurs in untreated controls within 6-8 days, it is believed that this system presents a candidate compound with the maximum challenge. In order to check factors such as changes in the infectivity of Plasmodium berghei or in the susceptibility of the host or to detect technical errors, a group of infected animals treated with pyrimethamine at dose levels producing definite increases in survival time is included as a positive control in every experiment.
In each experiment test compounds are administered in graded doses. […] However, if an active drug is toxic for the host, its toxicity may become a limiting factor; continued increases in dose levels also increase the toxic effects and may result in the diminution of survival times. Deaths prior to the sixth day, when untreated controls begin to die, are regarded as non-parasitic and become the basis for toxicity evaluations. Treated animals are kept under observation for 60 days. Survivors at the end of this period of time are considered as cured.
An increase of 100% in mean survival time is considered the minimum effective response for a candidate compound. In calculating mean survival time, toxic deaths and 60 day survivors are not included.
The antimalarial activity data acquired by the two test procedures described above are listed in Tables 2 and 3 for the compounds of this invention. In Table 4, the most promising compound of the series, compound 1, is compared directly with primaquine together with some additional test data for compound 1 compared to primaquine. In all the work reported herein primaquine is used in the form of the diphosphate salt. The test data are expressed in the form of the number of cures at a given dose level. […]

Plasmodium cynomolgi = experiment: Radical curative (tissue schizonticidal) test, SEATO, P. cynomolgi, rhesus monkey; format: in vivo, Plasmodium cynomolgi (strain B) in Indian rhesus monkeys; conditions: for Molar Primaquine Index CD 100: primaquine CD100 dose / drug CD100 dose, in moles; for Radical curative activity relative to primaquine: in words
Experimental: Radical Curative Test in Rhesus Monkeys, SEATO Medical Research Laboratory, Bangkok, John Brown/Richard Andre
This test is designed to evaluate the tissue schizonticidal (radical curative) activity of test compounds. Well-conditioned Indian rhesus monkeys of either sex weighing 2-4 Kg are utilized. Plasmodium cynomolgi (strain B) sporozoites are prepared by grinding heavily infected Anopheles dirus salivary glands in 1:1 monkey serum-saline vehicle.
Monkeys are infected by I.V. injection of 10^6 freshly isolated P. cynomolgi sporozoites on day 0. A rapidly rising parasitemia develops after a 7-9 day prepatent period, and administration of the test drug is initiated when the rising parasite count exceeds 5000 per mm^3 (typically day 10-12). Test drugs are administered orally (by nasogastric intubation) once daily for 7 consecutive days in aqueous solution or, if insoluble, in suspension in 0.3% methylcellulose solution. Chloroquine diphosphate (3.1 mg/kg base/kg orally per day) is always administered concurrently with the test drug for 7 days to eliminate blood schizonts. Thus any tissue schizonticidal activity of the test drug will always be apparent even if it lacks blood schizonticidal activity.
A vehicle control monkey and a positive drug control (primaquine) monkey are included in each group of inoculated monkeys.
The effect of the test drug is determined by counting blood parasites. Parasite counts are made daily through day 20, and every two days thereafter. Initially a clearance of blood parasites is observed due to the blood schizonticidal action of chloroquine. […] If there is no relapse within 20 days of the initial clearance of parasitemia, the monkey is splenectomized and its parasitemia followed for an additional 30 days. If there is no relapse within this period, the experiment is terminated and the monkey is considered "cured".
Primaquine diphosphate cures over 90% of monkeys in this test system when administered at a dose of 1.3 mg/kg of salt per day for 7 days ([…]) in combination with chloroquine.
The antimalarial activity data acquired by the two test procedures described above are listed in Tables 2 and 3 for the compounds of this invention. In Table 4, the most promising compound of the series, compound 1, is compared directly with primaquine together with some additional test data for compound 1 compared to primaquine. In all the work reported herein primaquine is used in the form of the diphosphate salt. The test data are expressed in the form of the number of cures at a given dose level. Extension of life (mean survival time) relative to the controls is noted in the Rane mouse test; if the mean survival time is extended seven or more days, the compound is considered to be active.
The Molar Primaquine Index is useful in the radical curative test (Table II) as a gauge of the efficacy of a candidate drug relative to primaquine.

Plasmodium berghei [2] = conditions: newer clinical suppressive drug; cited from earlier work

SMILES | Cures (60 days survival) (Plasmodium berghei [1]; 10 mg/kg × 1, s.c.) [C] | Cures (60 days survival) (Plasmodium berghei [1]; 20 mg/kg × 1, s.c.) [C] | Cures (60 days survival) (Plasmodium berghei [1]; 40 mg/kg × 1, s.c.) [C] | Cures (60 days survival) (Plasmodium berghei [1]; 80 mg/kg × 1, s.c.) [C] | Cures (60 days survival) (Plasmodium berghei [1]; 160 mg/kg × 1, s.c.) [C] | Molar Primaquine Index CD 100 (Plasmodium cynomolgi) | Cures (60 days survival) (Plasmodium berghei [1]; 320 mg/kg × 1, s.c.) [C] | Cures (60 days survival) (Plasmodium berghei [1]; 640 mg/kg × 1, s.c.) [C] | Toxic (Plasmodium berghei [1]; 640 mg/kg × 1, s.c.) [T] | other results
COc1cc(NCCCCC(C)N)c2nccc(C)c2c1Oc1cccc(C(F)(F)F)c1 (centres unmarked) [Compound 3, 8-((5-Amino-1-hexyl)amino)-6-methoxy-4-methyl-5-(3-trifluoromethylphenoxy)quinoline Hemisuccinate Hydrate] | 3 | 5 | 5 | 4 | 4 | 1.3 |  |  |  | Extension of survival relative to controls (Plasmodium berghei [1]; 5 mg/kg × 1, s.c.): 13 days; Suppressive activity (active/inactive) (Plasmodium berghei [1]; 5 mg/kg × 1, s.c.): A (Active, 7 Days or more estension of survival relative to controls.)
COc1cc(NC(C)CCCN)c2nccc(C)c2c1Oc1ccc(Cl)cc1Cl (centres unmarked) [Compound 8, 8-((4-Amino-1-methylbutyl)amino))-5-(2,4-dichlorophenoxy)-6-methoxy-4-methylquinoline Phosphate] | 1 | 5 | 5 | 5 | 5 | 1.3 | 4 | 3 | 2 | Toxic (Plasmodium berghei [1]; 320 mg/kg × 1, s.c.): 1T
OC(c1cc(C(F)(F)F)nc2c(C(F)(F)F)cccc12)C1CCCCN1 (centres unmarked) [mefloquine] |  |  |  |  |  |  |  |  |  | Curative dose, Rane Test (Plasmodium berghei [2]): 20 mg/kg
COc1cc(NC(C)CCCN)c2nccc(C)c2c1Oc1ccc(Cl)c(Cl)c1.O=P(O)(O)O (centres unmarked) [Compound 7, 8-((4-Amino-1-methylbutyl)amino)-5-(3,4-dichlorophenoxy)-6-methoxy-4-methylquinoline Phosphate] | 5 | 5 | 5 | 5 | 5 | 1.3 | 5 | 5 |  | Cures (60 days survival) (Plasmodium berghei [1]; 5 mg/kg × 1, s.c.): 4C
COc1ccc(Oc2c(OC)cc(NC(C)CCCN)c3nccc(C)c23)cc1.O=P(O)(O)O (centres unmarked) [Compound 6, 8-((4-Amino-1-methylbutyl)amino)-6-methoxy-5-(4-methoxyphenoxy)-4-methylquinoline Phosphate] |  | 1 | 5 | 5 | 5 | 4.6 | 5 | 2 | 3 | Extension of survival relative to controls (Plasmodium berghei [1]; 10 mg/kg × 1, s.c.): 7 days; Suppressive activity (active/inactive) (Plasmodium berghei [1]; 10 mg/kg × 1, s.c.): A (Active, 7 Days or more estension of survival relative to controls.); Radical curative activity relative to primaquine (Plasmodium cynomolgi): markedly superior to primaquine
CCC(CCCN)Nc1cc(OC)c(Oc2cccc(C(F)(F)F)c2)c2c(C)ccnc12.O=C(O)CCC(=O)O (centres unmarked) [Compound 4, 8-((4-Amino-1-ethylbutyl)amino)-6-methoxy-4-methyl-5-(3-trifluoromethylphenoxy)-quinoline Succinate] | 3 | 5 | 5 | 5 | 5 | 1.3 | 5 |  |  | Cures (60 days survival) (Plasmodium berghei [1]; 640 mg/kg × 1, s.c., Succinate): 2C and 3C
COc1cc(NC(C)CCCNC(C)C)c2nccc(C)c2c1Oc1cccc(C(F)(F)F)c1.O=C(O)CCC(=O)O (centres unmarked) [Compound 5, 8-((4-Isopropylamino-1-methylbutyl)amino)-6-methoxy-4-methyl-5-(3-trifluoromethylphenoxy)quinoline Succinate] |  |  |  |  |  | 1.3 |  |  | 4 | Suppressive activity (Plasmodium berghei [1]; in words, Table 3): totally ineffective
COc1cc(NCCCC(C)N)c2nccc(C)c2c1Oc1cccc(C(F)(F)F)c1 (centres unmarked) [Compound 2, 8-((4-Amino-1-pentyl)amino)-6-methoxy-4-methyl-5-(3-trifluoromethylphenoxy)-quinoline Hemisuccinate] |  | 4 | 5 |  |  | 1.3 |  |  |  | 
COc1cc(NC(C)CCCN)c2nccc(C)c2c1Oc1ccc(F)cc1.O=P(O)(O)O (centres unmarked) [Compound 9, 8-((4-Amino-1-methylbutyl)amino)-5-(4-fluorophenoxy)-6-methoxy-4-methylquinoline Phosphate] | 3 | 4 | 5 | 5 | 5 | 4.5 | 4 | 3 | 2 | Extension of survival relative to controls (Plasmodium berghei [1]; 5 mg/kg × 1, s.c.): 7 days; Suppressive activity (active/inactive) (Plasmodium berghei [1]; 5 mg/kg × 1, s.c.): A (Active, 7 Days or more estension of survival relative to controls.); Toxic (Plasmodium berghei [1]; 320 mg/kg × 1, s.c.): 1T; minimal effective dose (Plasmodium berghei [1]; Plasmodium berghei, sc, single dose, read-out: Curative dose, suppressive test): 10 mg/kg; Toxicity in suppressive test (Plasmodium berghei [1]; relative to compound 1): somewhat more toxic; Radical curative activity relative to primaquine (Plasmodium cynomolgi): markedly superior to primaquine
